These results are taken from patent publication US7256209B2, “Pyrazole derivatives and diabetic medicine containing them” (Ajinomoto Co., Inc., priority 2000, dated 2007).

Molecules are shown by their SMILES.

Assay [1] deals with male Wistar rats. The assay can be described thus: Activity on rat's sugar urine excretion. In kind it is in vivo. Particulars: for The amount of excreted glucose in urine: 100 mg/kg oral, urine collected 24 hours, per day and individual; for activity on urinary glucose excretion as compared to Example 35 of WO01/16147 (in words): compared to Referential Example 1, Table 2; for activity on urinary glucose excretion (in words): oral administration, rat. The procedure: 5-week old male Wistar rats (purchased from Charles River Japan, Inc.) were used in the experiment after they were housed in a metabolic cage for about one week in advance. The test compounds were suspended in olive oil and 20 mg/ml solution was prepared so that the dosage given per 1 kg of the weight of the rats was 5 ml.
After the rats were not fed for 4 hours, the test compounds were orally administered to them at 11 a.m. Their urine was collected, from that taken just after the administration to that taken 24 hours after the administration and its volume was measured. Then, the concentration of glucose in urine was measured by glucose oxidase method and urinary glucose excreted per a day and an individual was calculated.

In assay [2] the test system is Renal brush border membrane glucose uptake. The assay can be described thus: Inhibiting activity on renal brush border membrane glucose uptake. The assay is classed as biochemical. The note with it: rat renal brush border membrane, sodium-dependent 14C-D-glucose uptake. The procedure:
The test compound was dissolved in 100 mM Mannitol-10 mM HEPES/Tris (pH 7.4) and solutions having various concentrations were prepared.
Renal brush border membrane was prepared from a rat kidney and the solutions of the test compounds were added thereto and the product was incubated at 37° C. for 30 minutes. Then ^14C-D-glucose was added and the mixture was incubated for 1 minute. After tie reaction of glucose uptake was stopped by a solution containing 1 mM of phloridzin, the activity of ^14C-D-glucose on ^14C was measured by a liquid scintillation counter. The intensity of inhibition was calculated by subtracting the amount of taken glucose that is independent on sodium from the amount of taken glucose of the object samples.

For assay [3], the system named is male Wistar rats. The assay can be described thus: Activity on rat's sugar urine excretion. The assay is classed as in vivo. The note with it: for The amount of excreted glucose in urine: urine collected 24 hours, per day and individual.

In the case of `CCc1ccc(Cc2c(O[C@@H]3O[C@H](COC(=O)OC)[C@@H](O)[C@H](O)[C@H]3O)nn(-c3ccccc3)c2C(F)(F)F)cc1` [Example Compound 8, 4′-[(4′-ethylphenyl)methyl]-1′-phenyl-5′-trifluoromethyl-1H-pyrazole-3′-O-(6-carbomethoxy)-β-D-glucopyranoside], in the assay on male Wistar rats [1], the “The amount of excreted glucose in urine” value is 4.1 mg.

On to `CCc1ccc(Cc2c(O[C@@H]3O[C@H](COC(=O)OC)[C@@H](O)[C@H](O)[C@H]3O)nn(Cc3ccccc3)c2C(F)(F)F)cc1` [Example Compound 4, 4′-[(4′-ethylphenyl)methyl]-1′-benzyl-5′-trifluoromethyl-1H-pyrazole-3′-O-(6-carbomethoxy)-β-D-glucopyranoside], for which the “The amount of excreted glucose in urine” value with male Wistar rats [1] worked out at 27 mg.

Regarding `COC(=O)OC[C@H]1O[C@@H](Oc2nn(C(C)C)c(C)c2Cc2ccc(C)c(F)c2)[C@H](O)[C@@H](O)[C@@H]1O` [Example Compound 14, 4′-[(3′-fluoro-4′-methylphenyl)methyl]-1′-isopropyl-5′-methyl-1H-pyrazole-3′-O-(6-carbomethoxy)-β-D-glucopyranoside], in the assay on male Wistar rats [1], the “The amount of excreted glucose in urine” value came out at 918 mg, the “activity on urinary glucose excretion as compared to Example 35 of WO01/16147 (in words)” value is reported as “much higher activity” and the “activity on urinary glucose excretion (in words)” value is listed as “particularly high activity”.

Take `CSc1ccc(Cc2c(O[C@@H]3O[C@H](CO)[C@@H](O)[C@H](O)[C@H]3O)n[nH]c2C(F)(F)F)cc1` [Example Compound 1, 4-((4-methylthiophenyl)methyl)-5-(trifluoromethyl)-1H-pyrazole-3-O-β-D-glucopyranoside]: the “Inhibition intensity (concentration of the test compounds)” value in assay [2] (10 μM test compound) was 84% (10 μM).

Consider `CCc1ccc(Cc2c(O[C@@H]3O[C@H](COC(=O)OC)[C@@H](O)[C@H](O)[C@H]3O)nn(C(C)C)c2C)cc1` [Example Compound 16, 4′-[(4-ethylphenyl)methyl]-1′-isopropyl-5′-methyl-1H-pyrazole-3′-O-(6-carbomethoxy)-β-D-glucopyranoside], for which the “The amount of excreted glucose in urine” value in the assay on male Wistar rats [3] (3 mg/kg oral) is on record as 28 mg; with male Wistar rats [3] (10 mg/kg oral) it was 263 mg; in the assay on male Wistar rats [3] (30 mg/kg oral), 294 mg; in the assay with male Wistar rats [1], 598 mg. For the same compound, the “activity on urinary glucose excretion (in words)” value in the assay with male Wistar rats [3] (orally administered in lower doses such as 30 mg/kg or lower) was “still has high activity”; in the assay with male Wistar rats [1] it was “particularly high activity”. Further, the “activity on urinary glucose excretion as compared to Example 35 of WO01/16147 (in words)” value in the assay on male Wistar rats [1] is reported as “much higher activity”.

Turning to `Cc1[nH]nc(O[C@@H]2O[C@H](CO)[C@@H](O)[C@H](O)[C@H]2O)c1Cc1ccc(OC(C)C)cc1` [Referential Example Compound 1, 4-[(4-isopropoxyphenyl)methyl]-5-methyl-1H-pyrazole-3-O-β-D-glucopyranoside, reference compound], the “The amount of excreted glucose in urine” value in the assay with male Wistar rats [1] is 14 mg.

Take `CCc1ccc(Cc2c(O[C@@H]3O[C@H](COC(=O)OC)[C@@H](O)[C@H](O)[C@H]3O)nn(Cc3ccc(OC)cc3)c2C(F)(F)F)cc1` [Example Compound 6, 4′-[(4′-ethylphenyl)methyl]-1′-[(4′-methoxyphenyl)methyl]-5′-trifluoromethyl-1H-pyrazole-3′-O-(6-carbomethoxy)-β-D-glucopyranoside]: the “The amount of excreted glucose in urine” value in the assay with male Wistar rats [1] is given as 59 mg.

Take `COC(=O)OC[C@H]1O[C@@H](Oc2nn(C(C)C)c(C)c2Cc2ccc(OC)c(F)c2)[C@H](O)[C@@H](O)[C@@H]1O` [Example Compound 10, 4′-[(3′-fluoro-4′-methoxyphenyl)methyl]-1′-isopropyl-5′-methyl-1H-pyrazole-3′-O-(6-carbomethoxy)-β-D-glucopyranoside]: in the assay on male Wistar rats [1], the “The amount of excreted glucose in urine” value was 734 mg, the “activity on urinary glucose excretion as compared to Example 35 of WO01/16147 (in words)” value was “much higher activity” and the “activity on urinary glucose excretion (in words)” value is given as “particularly high activity”.

On to `CCc1ccc(Cc2c(O[C@@H]3O[C@H](C(=O)O)[C@@H](O)[C@H](O)[C@H]3O)n[nH]c2C(F)(F)F)cc1` [Example Compound 2, 4-((4-ethylphenyl)methyl)-5-(trifluoromethyl)-1H-pyrazole-3-yl-O-β-D-glucopyranoside uronic acid], for which, in assay [2] (100 μM test compound), the “Inhibition intensity (concentration of the test compounds)” value was 30% (100 μM).
